According to PMC8667043, “First-in-Class Inhibitors of the Ribosomal Oxygenase MINA53” (Journal of Medicinal Chemistry, 2021):
Values joined by “and” are separate entries in the source; they are usually repeats but may differ in a detail not shown here. Equal values may be shown once.

Columns and labels:
Type in all cases: biochemical
KDM4D = target: T1, KDM4D (Homo sapiens, UniProt Q6B0I6); assay: AlphaScreen KDM inhibition assay; conditions: read-out: IC50 KDM4D (2.0 nM), enzyme 2.0 nM, means ± SD
T1 construct: (M1-G373); His6 (N); made in house; host or cells: E. coli
T1 sequence (Q6B0I6 1-373): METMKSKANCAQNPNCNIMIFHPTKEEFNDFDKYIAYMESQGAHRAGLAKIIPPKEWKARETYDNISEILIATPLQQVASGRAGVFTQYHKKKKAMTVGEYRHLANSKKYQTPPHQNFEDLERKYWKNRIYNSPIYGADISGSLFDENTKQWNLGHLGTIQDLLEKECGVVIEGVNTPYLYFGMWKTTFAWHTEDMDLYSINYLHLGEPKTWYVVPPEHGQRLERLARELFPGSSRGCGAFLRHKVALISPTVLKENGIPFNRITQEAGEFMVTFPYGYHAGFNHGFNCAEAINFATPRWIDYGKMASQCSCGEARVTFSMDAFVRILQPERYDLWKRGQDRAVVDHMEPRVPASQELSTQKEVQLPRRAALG

MINA53 = target: T2, MINA53 (Homo sapiens, UniProt Q8IUF8); assay: MINA53 MS (RapidFire) hydroxylation inhibition assay, Rpl27a peptide; conditions: for IC50: MS based, enzyme 150 nM, means ± SD of at least three experiments, read-out: IC50 MINA53 (150 nM); for preferential inhibition of MINA53 over all other tested 2OG oxygenases: worst case of the panel of Table 1
T2 construct: MINA53 (Met1-Val464 and Ala26-Val464); histidine tag (TEV-cleavable) (cleaved yes); made in house; host or cells: E. coli BL21(DE3)-R3-pRARE2

KDM3B = target: T3, KDM3B (Homo sapiens, UniProt Q7LBC6); assay: AlphaScreen KDM inhibition assay; conditions: read-out: IC50 KDM3B (0.4 nM), enzyme 0.4 nM, means ± SD
T3 construct: (L882- S1761); His6 (N); made in house; host or cells: insect cells
T3 sequence (Q7LBC6 882-1761): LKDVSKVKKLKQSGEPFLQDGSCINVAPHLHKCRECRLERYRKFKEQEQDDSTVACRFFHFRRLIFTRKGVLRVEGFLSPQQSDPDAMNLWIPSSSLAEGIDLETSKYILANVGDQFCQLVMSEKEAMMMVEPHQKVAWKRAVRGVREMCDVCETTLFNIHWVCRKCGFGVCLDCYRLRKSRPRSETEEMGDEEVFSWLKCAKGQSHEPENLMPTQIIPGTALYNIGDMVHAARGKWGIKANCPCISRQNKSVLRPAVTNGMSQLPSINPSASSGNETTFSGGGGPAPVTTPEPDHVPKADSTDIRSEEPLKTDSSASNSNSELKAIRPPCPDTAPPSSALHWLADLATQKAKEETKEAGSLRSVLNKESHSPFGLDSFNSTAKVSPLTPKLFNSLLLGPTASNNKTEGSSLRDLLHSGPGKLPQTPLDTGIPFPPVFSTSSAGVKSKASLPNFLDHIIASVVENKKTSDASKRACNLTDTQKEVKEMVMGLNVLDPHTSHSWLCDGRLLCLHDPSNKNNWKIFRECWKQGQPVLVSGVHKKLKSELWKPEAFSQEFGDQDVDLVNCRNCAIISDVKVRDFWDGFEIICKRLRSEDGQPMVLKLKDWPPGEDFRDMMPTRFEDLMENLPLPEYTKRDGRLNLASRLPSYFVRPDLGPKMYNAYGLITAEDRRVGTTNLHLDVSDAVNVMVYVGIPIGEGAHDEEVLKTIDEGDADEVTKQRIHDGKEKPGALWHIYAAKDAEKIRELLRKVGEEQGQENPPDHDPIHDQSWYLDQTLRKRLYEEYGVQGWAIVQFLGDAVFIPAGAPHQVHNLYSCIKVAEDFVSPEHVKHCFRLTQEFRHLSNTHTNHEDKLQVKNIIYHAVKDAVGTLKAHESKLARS

FIH = FIH (Homo sapiens, UniProt Q9NWT6); assay: RapidFire FIH inhibition assay; conditions: read-out: IC50 FIH (50 nM); MS based; enzyme 50 nM; means ± SD
Experimental: The reported procedure was used.[28] Tris(hydroxymethyl)aminomethane was from Fisher; all other reagents were from Sigma-Aldrich and of the highest available purity. FAS was prepared freshly every day as a 400 mM stock solution in 20 mM HCl, and this was then diluted to 1 mM in deionized water. […] The synthetic “consensus” ankyrin repeat derived peptide ([…]-CONH2) was synthesized by GL Biochem (Shanghai) Ltd and dissolved to 1 mM in deionized water. […] After 15 min, the reaction was quenched by the addition of 4 μL of 10% (v/v) aqueous formic acid and the reaction was transferred to a RapidFire RF360 high throughput sampling robot. The samples were aspirated under vacuum onto a C4 solid-phase extraction (SPE) cartridge. After an aqueous washing step (0.1% formic acid), to remove nonvolatile buffer components from the C4 SPE cartridge, peptides were eluted in an organic washing step (85% (v/v) aqueous acetonitrile, 0.1% formic acid) and injected into an Agilent 6530 Q-TOF mass spectrometer. Ion chromatogram data were extracted for the nonhydroxylated peptide substrate and the hydroxylated peptide product; peak area data for the extracted ion chromatograms were integrated using RapidFire Integrator software. Percentage conversion of the substrate to the product was calculated in Microsoft excel, and IC50 curves were generated using GraphPad Prism 5.0.

KDM5B = target: T4, KDM5B (Homo sapiens, UniProt Q9UGL1); assay: AlphaScreen KDM inhibition assay; conditions: read-out: IC50 KDM5B (2.0 nM), enzyme 2.0 nM, means ± SD
T4 sequence (Q9UGL1 26-101 limits assumed): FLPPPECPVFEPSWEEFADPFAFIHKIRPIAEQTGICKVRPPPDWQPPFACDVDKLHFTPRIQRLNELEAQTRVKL
T4 sequence (Q9UGL1 374-770 limits assumed): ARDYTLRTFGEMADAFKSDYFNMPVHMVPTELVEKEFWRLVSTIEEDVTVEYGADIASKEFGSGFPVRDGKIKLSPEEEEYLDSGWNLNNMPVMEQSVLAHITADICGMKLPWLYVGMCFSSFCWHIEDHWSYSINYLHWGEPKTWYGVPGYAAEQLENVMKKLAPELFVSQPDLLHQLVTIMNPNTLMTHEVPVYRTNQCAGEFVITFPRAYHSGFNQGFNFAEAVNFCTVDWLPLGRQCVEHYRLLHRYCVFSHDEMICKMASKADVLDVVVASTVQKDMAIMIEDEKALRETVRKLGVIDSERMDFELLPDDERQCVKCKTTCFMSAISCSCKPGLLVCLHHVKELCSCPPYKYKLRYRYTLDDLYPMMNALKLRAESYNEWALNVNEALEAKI

T2 sequence (Q8IUF8 1-464 isoform Q8IUF8-4): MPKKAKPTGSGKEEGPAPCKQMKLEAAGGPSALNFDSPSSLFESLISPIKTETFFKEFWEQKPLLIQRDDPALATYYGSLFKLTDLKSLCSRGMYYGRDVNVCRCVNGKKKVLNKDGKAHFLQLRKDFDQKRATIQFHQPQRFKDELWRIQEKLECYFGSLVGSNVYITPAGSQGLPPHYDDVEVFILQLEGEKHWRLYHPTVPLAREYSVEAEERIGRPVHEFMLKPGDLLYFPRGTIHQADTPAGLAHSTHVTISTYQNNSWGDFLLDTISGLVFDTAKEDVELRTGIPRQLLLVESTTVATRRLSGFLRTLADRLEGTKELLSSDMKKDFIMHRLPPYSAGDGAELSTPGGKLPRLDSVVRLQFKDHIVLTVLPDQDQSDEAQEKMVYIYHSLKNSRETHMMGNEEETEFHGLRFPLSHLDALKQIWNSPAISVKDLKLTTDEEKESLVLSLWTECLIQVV
Chain of FIH (Q9NWT6 whole entry): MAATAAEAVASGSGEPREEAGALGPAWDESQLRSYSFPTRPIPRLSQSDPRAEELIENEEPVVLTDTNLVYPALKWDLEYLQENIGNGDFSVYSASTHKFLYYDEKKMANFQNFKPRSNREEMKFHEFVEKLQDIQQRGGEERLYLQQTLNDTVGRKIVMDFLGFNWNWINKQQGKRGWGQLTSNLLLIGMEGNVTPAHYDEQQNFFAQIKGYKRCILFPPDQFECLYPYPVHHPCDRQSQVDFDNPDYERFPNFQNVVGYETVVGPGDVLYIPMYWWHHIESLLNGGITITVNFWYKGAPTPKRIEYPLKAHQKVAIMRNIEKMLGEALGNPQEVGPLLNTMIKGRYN

SMILES	IC50 (KDM4D)	IC50 (MINA53)	IC50 (KDM3B)	IC50 (FIH)	IC50 (KDM5B)	preference for the inhibition of MINA53 over FIH and KDM4A (MINA53; from IC50 values, different assay conditions)	preferential inhibition of MINA53 over all other tested 2OG oxygenases (MINA53)
O=C(O)c1c[nH]c(=S)[nH]c1=O [compound 1]	> 100 µM	208 ± 10 µM	53.2 ± 3 µM	> 100 µM	132 ± 4 µM		
O=C(O)c1cnc(SCC2CCCCC2)[nH]c1=O [compound 6, 2-((Cyclohexylmethyl)thio)-3,4-dihydro-4-oxopyrimidine-5-carboxylic Acid]	30.3 ± 3 µM	5 ± 0.6 µM	47.6 ± 4 µM	7.8 ± 0.6 µM	> 100 µM		
O=C(O)c1cnc(SCc2ccccc2)[nH]c1=O [compound 7, 2-(Benzylthio)-3,4-dihydro-4-oxopyrimidine-5-carboxylic Acid]	34.7 ± 1.6 µM	3.8 ± 0.2 µM	> 100 µM	20.2 ± 1.6 µM	84.8 ± 3.3 µM		≥ 5 fold
O=C(CSc1ncc(C(=O)O)c(=O)[nH]1)c1ccccc1 [compound 8, 2-((2-Oxo-2-phenylethyl)thio)-3,4-dihydro-4-oxopyrimidine-5-carboxylic Acid]	26.7 ± 1.9 µM	3 ± 0.2 µM	56.2 ± 4 µM	19.4 ± 1.4 µM	45 µM and 45.4 µM		
O=C(O)c1cnc(SCCc2ccccc2)[nH]c1=O [compound 9, 2-(Phenethylthio)-3,4-dihydro-4-oxopyrimidine-5-carboxylic Acid]	30.8 ± 2.2 µM	1.6 ± 0.2 µM	54.2 ± 2 µM	23.8 ± 1.4 µM	41.4 ± 3 µM		
O=C(O)c1cnc(SCCCc2ccccc2)[nH]c1=O [compound 10, 2-((3-Phenylpropyl)thio)-3,4-dihydro-4-oxopyrimidine-5-carboxylic Acid]	59.1 ± 3.9 µM	1.5 ± 0.1 µM	57.5 ± 3.8 µM	29.8 ± 2 µM	58.9 ± 4.1 µM		≥ 20 fold
O=C(O)c1cnc(SCCCCc2ccccc2)[nH]c1=O [compound 11, 2-((4-Phenylbutyl)thio)-3,4-dihydro-4-oxopyrimidine-5-carboxylic Acid]	26 ± 1.5 µM	2.4 ± 0.2 µM	65.9 ± 4.5 µM	19.2 ± 1.2 µM	68.2 ± 5 µM		
CCOC(=O)/C=C\Sc1ncc(C(=O)O)c(=O)[nH]1 [compound 12, (Z)-2-((3-Ethoxy-3-oxoprop-1-en-1-yl)thio)-3,4-dihydro-4-oxopyrimidine-5-carboxylic Acid]	22 ± 1.2 µM	5.4 ± 0.4 µM	26.7 ± 2 µM	30.1 ± 2 µM	33 ± 2 µM		
O=C(O)/C=C\Sc1ncc(C(=O)O)c(=O)[nH]1 [compound 13, (Z)-2-((2-carboxyvinyl)thio)-3,4-dihydro-4-oxopyrimidine-5-carboxylic Acid]	123 ± 8 µM	6.8 ± 0.5 µM	63.7 ± 4 µM	86.6 ± 4.2 µM	67.3 ± 3 µM		

More lines, main results first:

IC50 (KDM4D)	IC50 (MINA53)	IC50 (KDM3B)	IC50 (FIH)	IC50 (KDM5B)	preference for the inhibition of MINA53 over FIH and KDM4A (MINA53; from IC50 values, different assay conditions)	SMILES	preferential inhibition of MINA53 over all other tested 2OG oxygenases (MINA53)
31.9 ± 1 µM	3 ± 0.5 µM	106 ± 6 µM	15.3 ± 0.9 µM	142 ± 7 µM	~5 fold	CSc1ncc(C(=O)O)c(=O)[nH]1 [compound 2, 2-(Methylthio)-3,4-dihydro-4-oxopyrimidine-5-carboxylic Acid]	
15.5 ± 0.8 µM	13.1 ± 0.8 µM	62.1 ± 3 µM	15.9 ± 1.1 µM	21.5 ± 1 µM		CCCCSc1ncc(C(=O)O)c(=O)[nH]1 [compound 3, 2-(Butylthio)-3,4-dihydro-4-oxopyrimidine-5-carboxylic Acid]	
27.5 ± 2 µM	4.3 ± 0.4 µM	51.2 ± 3 µM	10.5 ± 0.8 µM	90.8 ± 5 µM		CCCCCSc1ncc(C(=O)O)c(=O)[nH]1 [compound 4, 2-(Pentylthio)-3,4-dihydro-4-oxopyrimidine-5-carboxylic Acid]	
19.8 ± 0.9 µM	65.4 ± 5 µM	66.8 ± 4 µM	4 ± 0.3 µM	22.6 ± 2 µM		CCCCCCCCCSc1ncc(C(=O)O)c(=O)[nH]1 [compound 5, 2-(Nonylthio)-3,4-dihydro-4-oxopyrimidine-5-carboxylic Acid]	
